What was measured:
ACHN = assay: SRB test, renal cancer cell line ACHN; type: cell-based; settings: Homo sapiens, 48 hours, read-out: IG50 (×E−7)
Method: (§1) Test of Anti-cancer efficacy in the Cancer cell line. In order to examine anti-cancer efficacy of 2-alkyloxy-3-phenylethynyl-4a,5-dihydropyrido[2,3-b]pyrazine derivatives, Eight renal cancer cell lines were treated to perform an SRB test. In order to compare the anti-cancer efficacy, sutent® (Pfizer) was used for comparison.
(§2) 1) Method (SRB Test). The cancer cell lines were cultured in an RPMI 1640 medium containing 5% fetal bovine serum and 2 mM L-glutamine. The cancer cells were inoculated into a 96 well microtiter plate at a density of 5,000 or 40,000 cells/well. The cells were incubated at 37° C., 5% CO2, 95% air and 100% humidity for 24 hours prior to drug treatment.
(§3) After 24 hours, the cells were fixed with TCA at the time of drug addition (Tz). The drug was treated by 10-fold or log scale serial dilutions, and the efficacy was examined at a concentration of 5 point or more. After drug treatment, the cells were incubated for 48 hours. […] Bound stain was subsequently solubilized with trizma base, and the absorbance was read at 515 nm.
(§4) Growth inhibitory efficacy was measured by using the seven absorbance measurements. [time zero, (Tz), control growth, (C), and test growth in the presence of drug at the five concentration levels (Ti)], the percentage growth was calculated at each of the drug concentrations levels. […]

renal cancer cell lines = assay: SRB test, eight renal cancer cell lines together; type: cell-based
Method: as §1, §2, §3, §4

A498 = assay: SRB test, renal cancer cell line A498; type: cell-based; settings: Homo sapiens, A498, 48 hours, read-out: IG50 (×E−7)
Method: as §1, §2, §3, §4

Transglutaminase 2 = target: T1, Transglutaminase 2 (Cavia cutleri, UniProt P08587); assay: In vitro assay for inhibitory effect on TGase 2 ([1,4-14C] putrescine incorporation into succinylated casein); type: biochemical
T1 construct: purchased Sigma-Aldrich T5398
T1 sequence (P08587 1-690): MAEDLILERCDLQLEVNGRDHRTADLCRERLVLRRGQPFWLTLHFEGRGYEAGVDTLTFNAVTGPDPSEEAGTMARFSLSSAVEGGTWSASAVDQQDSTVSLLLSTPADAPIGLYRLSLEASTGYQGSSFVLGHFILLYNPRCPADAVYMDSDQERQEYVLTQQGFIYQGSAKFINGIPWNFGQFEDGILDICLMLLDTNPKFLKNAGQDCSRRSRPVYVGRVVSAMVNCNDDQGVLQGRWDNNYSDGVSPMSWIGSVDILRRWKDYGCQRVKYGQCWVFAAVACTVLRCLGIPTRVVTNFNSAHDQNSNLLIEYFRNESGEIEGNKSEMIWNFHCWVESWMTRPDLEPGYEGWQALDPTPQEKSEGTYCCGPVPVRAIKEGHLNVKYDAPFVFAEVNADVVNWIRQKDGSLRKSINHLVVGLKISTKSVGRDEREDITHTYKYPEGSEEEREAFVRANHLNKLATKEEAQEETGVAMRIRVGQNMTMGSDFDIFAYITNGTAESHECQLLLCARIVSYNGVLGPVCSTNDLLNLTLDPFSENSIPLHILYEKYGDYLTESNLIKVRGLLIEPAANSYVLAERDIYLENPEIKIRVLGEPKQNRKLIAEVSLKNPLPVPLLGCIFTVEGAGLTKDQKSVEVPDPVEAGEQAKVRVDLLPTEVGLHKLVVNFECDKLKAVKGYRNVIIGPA
Method: In vitro Assay for Inhibitory effect of 2-alkyloxy-3-phenylethynyl-4a,5-dihydropyrido[2,3-b]pyrazine derivative on TGase 2.
Method. […] Succinylated casein was purchased from Calbiochem (Cat. No. 573464), and 1 g of the powder was dissolved in 50 ml of a reaction buffer solution containing 5 mM DTT (0.1 M Tris-acetate (pH 8.0), 10 mM CaCl2, 0.15 M NaCl, 1.0 mM EDTA). This solution was stored in a deep freezer for further use. [1,4-14C] Putrescine dihydrochloride was purchased from GE Healthcare (Cat. No. CFA301), and the stock solution was diluted with distilled water to yield a radiological dose of 5 μCi/ml. Transglutaminase 2 was purchased from Sigma-Aldrich (Cat. No. T5398), and diluted with distilled water to yield a final concentration of 1 unit/ml. 2-Alkyloxy-3-phenylethynyl-4a,5-dihydropyrido[2,3-b]pyrazine derivative was dissolved at a concentration of 1 mM to prepare its stock solution, and the stock solution was diluted with DMSO to prepare solutions having various concentrations.
450 μl of succinylated casein solution and 50 μl of [1,4-14C] putrescine dihydrochloride solution were mixed together to prepare a substrate solution. 96 μl of the reaction buffer, 3 μl of the stock solution of the compounds of the present invention, and 1 μl of the stock solution of transglutaminase were mixed together to prepare each sample, followed by incubation at 37° C. for 10 min. 500 μl of the substrate solution and 100 μl of sample solution were mixed well, and the mixture was incubated at 37° C. for 2 hrs and then the reaction terminated by adding 4.5 ml of cold (4° C.) 7.5% TCA. The final solution was stored at 4° C. for 1 hr. The TCA-protein precipitates were filtered through a GF/glass fiber filter, washed with 25 ml of cold 5% TCA, and dried. Radioactivity of cross-linked protein was measured using a β-counter (Beckman Coulter), and compensated by the activity of DMSO-control group as a standard. The activity of transglutaminase was represented by the measured values.

SN12C = assay: SRB test, renal cancer cell line SN12C; type: cell-based; settings: Homo sapiens, 48 hours, read-out: IG50 (×E−7)
Method: as §1, §2, §3, §4

TK10 = assay: SRB test, renal cancer cell line TK10; type: cell-based; settings: Homo sapiens, TK-10, TK10, 48 hours, read-out: IG50 (×E−7)
Method: as §1, §2, §3, §4

786-O = assay: SRB test, renal cancer cell line 786-O; type: cell-based; settings: Homo sapiens, 786-0, 48 hours, read-out: IG50 (×E−7)
Method: as §1, §2, §3, §4

RXF393 = assay: SRB test, renal cancer cell line RXF393; type: cell-based; settings: Homo sapiens, RXF 393, RXF393, 48 hours, read-out: IG50 (×E−7)
Method: as §1, §2, §3, §4

CAKI-I = assay: SRB test, renal cancer cell line CAKI-I; type: cell-based; settings: 48 hours, read-out: IG50 (×E−7)
Method: as §1, §2, §3, §4

US31 = assay: SRB test, renal cancer cell line US31; type: cell-based; settings: 48 h, read-out: IG50 (×E−7)
Method: as §1, §2, §3, §4

MDA-MB-231 cells = assay: Anti-cancer efficacy on MDA231 breast cancer cell line by animal study (subcutaneous xenograft); type: in vivo; settings: 4 mg/kg, compared to the cisplatin-treated group, FIGS. 3 and 4
Method: Evaluation of Anti-cancer efficacy of TGase 2 inhibitor on MDA231 breast cancer cell line by animal study.
MDA-MB-231 cells were cultured in a DMEM medium containing 10% FBS.
8×10^6 of MDA-MB-231 cells were subcutaneously injected into 7-week-old female Balb/c-nude mice. Four TGase inhibitors and doxorubicin were co-administered, and the effects were examined Group 1: saline. […] Group 3: 2-alkyloxy-3-phenylethynyl-4a,5-dihydropyrido[2,3-b]pyrazine derivative (4 mg/kg).
The prepared cancer cell, MDA-MB231/luciferase (8×10^6 cells/head) was subcutaneously injected into animals 7 days after their arrival. When a volume of the injected cancer cells reached 100 mm3, drug treatment was started.
After injection of MDA-MB-231, when a volume of the injected tumor reached 100 mm3, drug treatment was performed. After 3-4 weeks, the mice were sacrificed.
After the tumor volume reached 100 mm3, the size was measured three times per week during the drug treatment period. The tumor volume was calculated as ‘long axis×long axis×short axis/2’.

Structure (SMILES)	inhibition at 10 µM (Transglutaminase 2) [%]	also measured
C(#Cc1nc2ncccc2nc1OCCN1CCCC1)c1ccccc1 [Example 1, 3-phenylethynyl-2-(2-(pyrrolidin-1-yl)ethoxy)pyrido[2,3-b]pyrazine]	91	IC50 (ACHN): 137 nM; GI50 (renal cancer cell lines; eight renal cancer cell lines, SRB, read-out: Average GI50 over all cell lines): 430 nM; anti-cancer efficacy compared with SUTENT (renal cancer cell lines; renal cancer cell line, SRB growth rate, FIG. 2): better than that of SUTENT®; IC50 (A498): 5610 nM; IC50 (Transglutaminase 2; FIG. 1): 33.8 nM; IC50 (SN12C): 186 nM; IC50 (TK10): 529 nM; IC50 (786-O): 225 nM; IC50 (RXF393): 179 nM; IC50 (CAKI-I): 71 nM; IC50 (US31): 5490 nM; reduction in the tumor size (MDA-MB-231 cells): the best effect of a reduction in the tumor size
C(#Cc1nc2ncccc2nc1OCCN1CCCCC1)c1ccccc1 [Example 2, 3-phenylethynyl-2-(2-(piperidin-1-yl)ethoxy)pyrido[2,3-b]pyrazine]	83	
C(#Cc1nc2ncccc2nc1OCCN1CCOCC1)c1ccccc1 [Example 3, 4-(2-(3-(phenylethynyl)pyrido[3,2-b]pyrazin-2-yloxy)ethyl)morpholine]	47	
C(#Cc1nc2ncccc2nc1OCCCN1CCCC1)c1ccccc1 [Example 4, 3-(phenylethynyl)-2-(3-(pyrrolidin-1-yl)propoxy)pyrido[3,2-b]pyrazine]	59	
C(#Cc1nc2ncccc2nc1OCCCN1CCCCC1)c1ccccc1 [Example 5, 3-(phenylethynyl)-2-(3-(piperidin-1-yl)propoxy)pyrido[3,2-b]pyrazine]	54	
C(#Cc1nc2ncccc2nc1OCCCN1CCOCC1)c1ccccc1 [Example 6, 4-(3-(3-(phenylethynyl)pyrido[3,2-b]pyrazin-2-yloxy)propyl)morpholine]	32	
O=C1CCCN1CCCOc1nc2cccnc2nc1C#Cc1ccccc1 [Example 7, 1-(3-(3-(phenylethynyl)pyrido[3,2-b]pyrazin-2-yloxy)propyl)pyrrolidin-2-one]	43	
CN(C)c1ccc(C#Cc2nc3ncccc3nc2OCCN2CCCC2)cc1 [Example 8, N,N-dimethyl-4-((2-(2-(pyrrolidin-1-yl)ethoxy)pyrido[3,2-b]pyrazin-3-yl)ethynyl)benzenamine]	68	
CN(C)c1ccc(C#Cc2nc3ncccc3nc2OCCN2CCCCC2)cc1 [Example 9, N,N-dimethyl-4-((2-(2-(piperidin-1-yl)ethoxy)pyrido[3,2-b]pyrazin-3-yl)ethynyl)benzenamine]	57	
COc1ccc(C#Cc2nc3ncccc3nc2OCCN2CCCC2)cc1 [Example 14, 3-(4-methoxyphenylethynyl)-2-(2-pyrrolidin-1-ylethoxy)pyrido[3,2-b]pyrazine]	64	
COc1ccc(C#Cc2nc3ncccc3nc2OCCN2CCCCC2)cc1 [Example 15, 3-(4-methoxyphenylethynyl)-2-(2-piperidin-1-ylethoxy)pyrido[3,2-b]pyrazine]	51	
Cc1ccc(C#Cc2nc3ncccc3nc2OCCN2CCCC2)cc1 [Example 21, 2-(2-(pyrrolidin-1-yl)ethoxy)-3-(p-tolylethynyl)pyrido[3,2-b]pyrazine]	52	
CN(C)c1ccccc1C#Cc1nc2ncccc2nc1OCCN1CCCC1 [Example 42, N,N-dimethyl-2-((2-(2-(pyrrolidin-1-yl)ethoxy)pyrido[3,2-b]pyrazin-3-yl)ethynyl)benzenamine]	63	
CN(C)c1ccccc1C#Cc1nc2ncccc2nc1OCCN1CCCCC1 [Example 43, N,N-dimethyl-2-((2-(2-(piperidin-1-yl)ethoxy)pyrido[3,2-b]pyrazin-3-yl)ethynyl)benzenamine]	54	
